Assay results reported in patent publication US8338598B2, “Herbicidal pyrido[2,3-B]pyrazines and their use as herbicides” (Syngenta Limited, priority 2008, dated 2012).

Tests used:
Format in all cases: in vivo
Setaria faberi [1] = test: Example B2 herbicidal action, pre-emergence, pots in glasshouse; conditions: 1000 g/ha, evaluated after 13 days, 10=total damage to plant, 0=no damage to plant
Experimental: (§1) Seeds of a variety of test species were sown in standard soil in pots. After cultivation for one day (pre-emergence) or after 8 days cultivation (post-emergence) under controlled conditions in a glasshouse (at 24/16° C., day/night; 14 hours light; 65% humidity), the plants were sprayed with an aqueous spray solution derived from the formulation of the technical active ingredient in acetone/water (50:50) solution containing 0.5% Tween 20 (polyoxyethelyene sorbitan monolaurate, CAS RN 9005-64-5). The test plants were then grown in a glasshouse under controlled conditions in a glasshouse (at 24/16° C., day/night; 14 hours light; 65% humidity) and watered twice daily. After 13 days, the test was evaluated (10=total damage to plant; 0=no damage to plant).

Amaranthus retroflexus [2] = test: as above; conditions: 1000 g/ha, evaluated after 13 days, 10=total damage to plant, 0=no damage to plant
Experimental: as §1

Solanum nigrum [3] = test: as above; conditions: 1000 g/ha, evaluated after 13 days, 10=total damage to plant, 0=no damage to plant
Experimental: as §1

Ipomea hederaceae [4] = test: as above; conditions: 1000 g/ha, evaluated after 13 days, 10=total damage to plant, 0=no damage to plant
Experimental: as §1

Echinochloa crus-galli [5] = test: as above; conditions: 1000 g/ha, evaluated after 13 days, 10=total damage to plant, 0=no damage to plant
Experimental: as §1

Setaria faberi [6] = test: Example B2 herbicidal action, post-emergence, pots in glasshouse; conditions: 1000 g/ha, evaluated after 13 days, 10=total damage to plant, 0=no damage to plant
Experimental: as §1

Amaranthus retroflexus [7] = test: as above; conditions: 1000 g/ha, evaluated after 13 days, 10=total damage to plant, 0=no damage to plant
Experimental: as §1

Solanum nigrum [8] = test: as above; conditions: 1000 g/ha, evaluated after 13 days, 10=total damage to plant, 0=no damage to plant
Experimental: as §1

Ipomea hederaceae [9] = test: as above; conditions: 1000 g/ha, evaluated after 13 days, 10=total damage to plant, 0=no damage to plant
Experimental: as §1

Echinochloa crus-galli [10] = test: as above; conditions: 1000 g/ha, evaluated after 13 days, 10=total damage to plant, 0=no damage to plant
Experimental: as §1

test plants = test: Example B1 herbicidal action, post-emergence, overall statement on the test plants; conditions: Example B1 protocol, 1000 g/ha, result in words
Experimental: Seeds of a variety of test species were sown in sterilised standard soil in seed trays each having 96 cells. After cultivation for 8 to 9 days cultivation (post-emergence) under controlled conditions in a climatic chamber (cultivation at 23/17° C., day/night; 13 hours light; 50-60% humidity), the plants were treated with an aqueous spray solution of 1000 mg/l of the active ingredient dissolved in 10% DMSO (dimethyl sulfoxide, CAS RN 67-68-5) as a solvent, equivalent to 1000 g/ha. The plants were grown in the climatic chamber after application at (24/19° C., day/night; 13 hours light; 50-60% humidity) and watered twice daily. After 9 days until the test was evaluated (10=total damage to plant, 0=no damage to plant)

CC(C)(C)C(=O)Oc1c(-c2c(Cl)ccnc2Cl)c(=O)n(CC(F)F)c2nccnc12 [Compound A18, 2,2-Dimethyl-propionic acid 7-(2,4-dichloro-pyrid-3-yl)-5-(2,2-difluoro-ethyl)-6-oxo-5,6-dihydro-pyrido[2,3-b]pyrazin-8-yl ester]
SETFA, damage to plant (Setaria faberi [1]): 5
AMARE, damage to plant (Amaranthus retroflexus [2]): 6
SOLNI, damage to plant (Solanum nigrum [3]): 9
IPOHE, damage to plant (Ipomea hederaceae [4]): 6
ECHCG, damage to plant (Echinochloa crus-galli [5]): 7
SETFA, damage to plant (Setaria faberi [6]): 7
AMARE, damage to plant (Amaranthus retroflexus [7]): 10
SOLNI, damage to plant (Solanum nigrum [8]): 9
IPOHE, damage to plant (Ipomea hederaceae [9]): 9
ECHCG, damage to plant (Echinochloa crus-galli [10]): 7

Cc1nc(Cl)sc1-c1c(O)c2nccnc2[nH]c1=O [Compound B1, 7-(2-chloro-4-methyl-thiazol-5-yl)-8-hydroxy-5H-pyrido[2,3-b]pyrazin-6-one]
damage to the test plants (test plants): little or no damage

Cc1cc(-c2c(OC(=O)C(C)(C)C)c3nccnc3[nH]c2=O)[nH]n1 [Compound B19]
damage to the test plants (test plants): little or no damage

Cc1cc(-c2c(OC(=O)C(C)(C)C)c3nccnc3n(C)c2=O)n2nc(C)cc2n1 [Compound C3]
damage to the test plants (test plants): little or no damage

CC(C)C(=O)Oc1c(-c2nn(C)nc2C(F)(F)F)c(=O)n(CC(F)F)c2nccnc12 [Compound B29]
SETFA, damage to plant (Setaria faberi [1]): 3
AMARE, damage to plant (Amaranthus retroflexus [2]): 4
SOLNI, damage to plant (Solanum nigrum [3]): 2
IPOHE, damage to plant (Ipomea hederaceae [4]): 1
ECHCG, damage to plant (Echinochloa crus-galli [5]): 1
SETFA, damage to plant (Setaria faberi [6]): 7
AMARE, damage to plant (Amaranthus retroflexus [7]): 8
SOLNI, damage to plant (Solanum nigrum [8]): 7
IPOHE, damage to plant (Ipomea hederaceae [9]): 7
ECHCG, damage to plant (Echinochloa crus-galli [10]): 3

O=c1[nH]c2nccnc2c(O)c1-c1ccno1 [Compound B15]
damage to the test plants (test plants): little or no damage

CCn1c(=O)c(-c2cc(C)no2)c(OC(=O)C(C)C)c2nccnc21 [Compound B21]
damage to the test plants (test plants): little or no damage

CC(C)C(=O)Oc1c(-c2c(C(F)(F)F)nn(C)c2OC(F)F)c(=O)n(CC(F)F)c2nccnc12 [Compound B24, isobutyric acid 7-(5-difluoromethoxy-1-methyl-3-trifluoromethyl-1H-pyrazol-4-yl)-5-(2,2-difluoro-ethyl)-6-oxo-5,6-dihydro-pyrido[2,3-b]pyrazin-8-yl ester]
SETFA, damage to plant (Setaria faberi [1]): 7
AMARE, damage to plant (Amaranthus retroflexus [2]): 10
SOLNI, damage to plant (Solanum nigrum [3]): 8
IPOHE, damage to plant (Ipomea hederaceae [4]): 5
ECHCG, damage to plant (Echinochloa crus-galli [5]): 8
SETFA, damage to plant (Setaria faberi [6]): 8
AMARE, damage to plant (Amaranthus retroflexus [7]): 9
SOLNI, damage to plant (Solanum nigrum [8]): 10
IPOHE, damage to plant (Ipomea hederaceae [9]): 8
ECHCG, damage to plant (Echinochloa crus-galli [10]): 8

Cn1c(=O)c(-c2c(Cl)cncc2Cl)c(OC(=O)C(C)(C)C)c2nccnc21 [Compound A9, 2,2-Dimethyl-propionic acid 7-(3,5-dichloro-pyrid-4-yl)-5-methyl-6-oxo-5,6-dihydro-pyrido[2,3-b]pyrazin-8-yl ester]
SETFA, damage to plant (Setaria faberi [1]): 0
AMARE, damage to plant (Amaranthus retroflexus [2]): 0
SOLNI, damage to plant (Solanum nigrum [3]): 1
IPOHE, damage to plant (Ipomea hederaceae [4]): 5
ECHCG, damage to plant (Echinochloa crus-galli [5]): 5
SETFA, damage to plant (Setaria faberi [6]): 4
AMARE, damage to plant (Amaranthus retroflexus [7]): 8
SOLNI, damage to plant (Solanum nigrum [8]): 8
IPOHE, damage to plant (Ipomea hederaceae [9]): 8
ECHCG, damage to plant (Echinochloa crus-galli [10]): 7

Cc1cc(-c2c(OC(=O)C(C)(C)C)c3nccnc3[nH]c2=O)n2nc(C)cc2n1 [Compound C2]
damage to the test plants (test plants): little or no damage

O=c1[nH]c2nccnc2c(O)c1-c1ncc(C(F)(F)F)cc1Cl [Compound A29]
damage to the test plants (test plants): little or no damage

CS(=O)(=O)Oc1c(-c2ncc(Cl)cc2Cl)c(=O)[nH]c2nccnc12 [Compound A4, methanesulfonic acid 7-(3,5-dichloro-pyrid-2-yl)-6-oxo-5,6-dihydro-pyrido[2,3-b]pyrazin-8-yl ester]
damage to the test plants (test plants): little or no damage

O=c1c(-c2cc(Cl)ncc2Cl)c(O)c2nccnc2n1CC(F)F [Compound A21, 7-(2,5-Dichloro-pyrid-4-yl)-5-(2,2-difluoro-ethyl)-8-hydroxy-5H-pyrido[2,3-b]pyrazin-6-one]
SETFA, damage to plant (Setaria faberi [1]): 2
AMARE, damage to plant (Amaranthus retroflexus [2]): 2
SOLNI, damage to plant (Solanum nigrum [3]): 0
IPOHE, damage to plant (Ipomea hederaceae [4]): 0
ECHCG, damage to plant (Echinochloa crus-galli [5]): 0
SETFA, damage to plant (Setaria faberi [6]): 7
AMARE, damage to plant (Amaranthus retroflexus [7]): 9
SOLNI, damage to plant (Solanum nigrum [8]): 8
IPOHE, damage to plant (Ipomea hederaceae [9]): 7
ECHCG, damage to plant (Echinochloa crus-galli [10]): 7

Cc1cc(-c2c(OC(=O)C(C)C)c3nccnc3[nH]c2=O)[nH]n1 [Compound B18]
damage to the test plants (test plants): little or no damage

CC(C)C(=O)Oc1c(-c2cc(C(F)(F)F)no2)c(=O)[nH]c2nccnc12 [Compound B7, isobutyric acid 6-hydroxy-7-(3-trifluoromethyl-isoxazol-5-yl)-pyrido[2,3-b]pyrazin-8-yl ester]
damage to the test plants (test plants): little or no damage

Cc1cc(-c2c(O)c3nccnc3[nH]c2=O)n2nc(C)cc2n1 [Compound C1]
damage to the test plants (test plants): little or no damage

Cc1cc(-c2c(O)c3nccnc3[nH]c2=O)[nH]n1 [Compound B14]
damage to the test plants (test plants): little or no damage

CCOC(=O)Oc1c(-c2ncc(Cl)cc2Cl)c(=O)[nH]c2nccnc12 [Compound A3, Carbonic acid 7-(3,5-dichloro-pyrid-2-yl)-6-oxo-5,6-dihydro-pyrido[2,3-b]pyrazin-8-yl ester ethyl ester]
damage to the test plants (test plants): little or no damage

CC(C)C(=O)Oc1c(-c2ncc(Cl)cc2Cl)c(O)nc2nccnc12 [Compound A5, isobutyric acid 7-(3,5-dichloro-pyrid-2-yl)-6-oxo-5,6-dihydro-pyrido[2,3-b]pyrazin-8-yl ester]
damage to the test plants (test plants): little or no damage

CCn1c(=O)c(-c2cc(C)no2)c(OC(=O)C(C)(C)C)c2nccnc21 [Compound B20]
damage to the test plants (test plants): little or no damage

O=c1[nH]c2nccnc2c(O)c1-c1ncc(Cl)cc1F [Compound A28]
damage to the test plants (test plants): little or no damage

Cc1cc(-c2c(OC(=O)C(C)C)c3nccnc3[nH]c2=O)on1 [Compound B16]
damage to the test plants (test plants): little or no damage

Cc1cc(-c2c(O)c3nccnc3[nH]c2=O)on1 [Compound B13]
damage to the test plants (test plants): little or no damage

Oc1nc2nccnc2c(O)c1-c1ncc(Cl)cc1Cl [Compound A1, 7-(3,5-dichloro-pyrid-2-yl)-pyrido[2,3-b]pyrazine-6,8-diol]
damage to the test plants (test plants): little or no damage

Cc1cc(-c2c(OC(=O)C(C)(C)C)c3nccnc3[nH]c2=O)on1 [Compound B17]
damage to the test plants (test plants): little or no damage

Cc1noc(-c2c(OC(=O)C(C)C)c3nccnc3n(C)c2=O)n1 [Compound B6, isobutyric acid 5-methyl-7-(3-methyl-1,2,4-oxadiazol-5-yl)-6-oxo-5,6-dihydro-pyrido[2,3-b]pyrazin-8-yl ester]
damage to the test plants (test plants): little or no damage

CCOc1c(-c2cc(C)n(CC)n2)c(=O)n(CC)c2nccnc12 [Compound B22]
damage to the test plants (test plants): little or no damage

CC(C)(C)C(=O)Oc1c(-c2c(Cl)ccnc2Cl)c(=O)[nH]c2nccnc12 [Compound A17, 2,2-Dimethyl-propionic acid 7-(2,4-dichloro-pyrid-3-yl)-6-oxo-5,6-dihydro-pyrido[2,3-b]pyrazin-8-yl ester]
damage to the test plants (test plants): little or no damage
